Measured values taken from ChEMBL document CHEMBL1201862, “PubChem BioAssay data set” (2004).
The source made the active and inactive calls.

Key:
[1] = Late stage counterscreen results from the probe development effort to identify activators of signal transducer and activator of transcription 1 (STAT1): luminescence-based cell-based dose response assay to identify cytotoxic compounds.; type: functional
[2] = target: T1, Zinc finger protein mex-5 (Caenorhabditis elegans, UniProt Q9XUB2); experiment: potency of MEX-5 RNA-binding blockers – biochemical, C. elegans, fluorescence polarization, dose response (AID 1960)
T1 sequence (Q9XUB2 whole entry): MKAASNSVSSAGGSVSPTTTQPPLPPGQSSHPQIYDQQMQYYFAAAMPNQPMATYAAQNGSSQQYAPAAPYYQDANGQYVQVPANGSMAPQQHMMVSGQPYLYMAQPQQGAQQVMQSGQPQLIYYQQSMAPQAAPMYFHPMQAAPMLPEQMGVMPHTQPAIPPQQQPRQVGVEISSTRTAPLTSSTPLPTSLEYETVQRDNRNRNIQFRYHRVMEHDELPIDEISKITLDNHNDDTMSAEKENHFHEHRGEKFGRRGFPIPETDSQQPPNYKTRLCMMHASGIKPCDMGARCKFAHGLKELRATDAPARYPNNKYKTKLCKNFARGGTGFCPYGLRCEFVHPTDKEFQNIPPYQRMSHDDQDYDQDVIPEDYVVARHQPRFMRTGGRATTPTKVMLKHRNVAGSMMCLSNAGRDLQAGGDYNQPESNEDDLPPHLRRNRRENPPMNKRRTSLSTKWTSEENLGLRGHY

[3] = target: Ephrin type-A receptor 4 (Mus musculus, UniProt Q03137); experiment: EphA4 ligand-binding antagonists – biochemical, colorimetric, mouse EphA4, primary screen (AID 689); type: functional
Sequence of Ephrin type-A receptor 4 (Q03137 whole entry): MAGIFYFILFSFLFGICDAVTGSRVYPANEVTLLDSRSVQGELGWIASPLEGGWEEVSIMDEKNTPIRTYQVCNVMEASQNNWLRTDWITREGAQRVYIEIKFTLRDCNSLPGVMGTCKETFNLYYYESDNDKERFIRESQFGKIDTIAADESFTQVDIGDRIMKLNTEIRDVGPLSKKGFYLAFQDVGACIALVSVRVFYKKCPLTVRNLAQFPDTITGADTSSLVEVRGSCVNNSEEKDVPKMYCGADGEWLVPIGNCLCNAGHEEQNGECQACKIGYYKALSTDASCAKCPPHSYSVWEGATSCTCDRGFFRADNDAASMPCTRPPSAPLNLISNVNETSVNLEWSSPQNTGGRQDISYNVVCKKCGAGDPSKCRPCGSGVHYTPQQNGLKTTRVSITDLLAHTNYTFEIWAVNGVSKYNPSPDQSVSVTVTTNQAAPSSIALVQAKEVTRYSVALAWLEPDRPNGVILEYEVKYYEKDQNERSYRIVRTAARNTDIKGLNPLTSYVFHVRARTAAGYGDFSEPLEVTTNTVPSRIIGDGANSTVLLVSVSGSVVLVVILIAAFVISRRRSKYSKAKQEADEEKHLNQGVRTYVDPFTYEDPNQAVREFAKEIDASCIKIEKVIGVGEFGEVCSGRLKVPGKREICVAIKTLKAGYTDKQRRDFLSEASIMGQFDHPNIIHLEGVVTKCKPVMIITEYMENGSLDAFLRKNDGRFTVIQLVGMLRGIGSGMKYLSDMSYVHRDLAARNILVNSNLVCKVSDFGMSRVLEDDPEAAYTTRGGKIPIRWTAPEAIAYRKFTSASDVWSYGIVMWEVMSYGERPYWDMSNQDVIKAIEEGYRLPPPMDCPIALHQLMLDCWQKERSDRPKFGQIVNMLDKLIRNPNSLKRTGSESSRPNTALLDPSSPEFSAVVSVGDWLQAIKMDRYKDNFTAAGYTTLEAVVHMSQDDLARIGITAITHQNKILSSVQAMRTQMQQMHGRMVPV

[4] = target: Eukaryotic translation initiation factor 4E (Mus musculus, UniProt P63073); experiment: blockers of eIF4G binding by eIF4E – biochemical, TR-FRET, dose response (AID 855); type: functional;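 further: potency for disrupting eIF4E binding to eIF4GI seen as loss of FRET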
Sequence of Eukaryotic translation initiation factor 4E (P63073 whole entry): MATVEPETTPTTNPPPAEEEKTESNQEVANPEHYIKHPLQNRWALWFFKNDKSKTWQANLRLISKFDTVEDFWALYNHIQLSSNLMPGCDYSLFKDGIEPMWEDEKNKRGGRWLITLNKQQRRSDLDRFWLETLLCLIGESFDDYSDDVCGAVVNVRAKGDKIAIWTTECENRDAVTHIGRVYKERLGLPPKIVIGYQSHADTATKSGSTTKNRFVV

[5] = target: T2, Aminopeptidase N (Plasmodium falciparum FcB1/Columbia, UniProt O96935); experiment: malaria alanyl aminopeptidase activity blockers – biochemical, fluorogenic H-Leu-NHMec substrate, 1536-well (AID 1445); parameters: species or system Plasmodium falciparum 3D7, 3D7
T2 sequence (O96935 whole entry): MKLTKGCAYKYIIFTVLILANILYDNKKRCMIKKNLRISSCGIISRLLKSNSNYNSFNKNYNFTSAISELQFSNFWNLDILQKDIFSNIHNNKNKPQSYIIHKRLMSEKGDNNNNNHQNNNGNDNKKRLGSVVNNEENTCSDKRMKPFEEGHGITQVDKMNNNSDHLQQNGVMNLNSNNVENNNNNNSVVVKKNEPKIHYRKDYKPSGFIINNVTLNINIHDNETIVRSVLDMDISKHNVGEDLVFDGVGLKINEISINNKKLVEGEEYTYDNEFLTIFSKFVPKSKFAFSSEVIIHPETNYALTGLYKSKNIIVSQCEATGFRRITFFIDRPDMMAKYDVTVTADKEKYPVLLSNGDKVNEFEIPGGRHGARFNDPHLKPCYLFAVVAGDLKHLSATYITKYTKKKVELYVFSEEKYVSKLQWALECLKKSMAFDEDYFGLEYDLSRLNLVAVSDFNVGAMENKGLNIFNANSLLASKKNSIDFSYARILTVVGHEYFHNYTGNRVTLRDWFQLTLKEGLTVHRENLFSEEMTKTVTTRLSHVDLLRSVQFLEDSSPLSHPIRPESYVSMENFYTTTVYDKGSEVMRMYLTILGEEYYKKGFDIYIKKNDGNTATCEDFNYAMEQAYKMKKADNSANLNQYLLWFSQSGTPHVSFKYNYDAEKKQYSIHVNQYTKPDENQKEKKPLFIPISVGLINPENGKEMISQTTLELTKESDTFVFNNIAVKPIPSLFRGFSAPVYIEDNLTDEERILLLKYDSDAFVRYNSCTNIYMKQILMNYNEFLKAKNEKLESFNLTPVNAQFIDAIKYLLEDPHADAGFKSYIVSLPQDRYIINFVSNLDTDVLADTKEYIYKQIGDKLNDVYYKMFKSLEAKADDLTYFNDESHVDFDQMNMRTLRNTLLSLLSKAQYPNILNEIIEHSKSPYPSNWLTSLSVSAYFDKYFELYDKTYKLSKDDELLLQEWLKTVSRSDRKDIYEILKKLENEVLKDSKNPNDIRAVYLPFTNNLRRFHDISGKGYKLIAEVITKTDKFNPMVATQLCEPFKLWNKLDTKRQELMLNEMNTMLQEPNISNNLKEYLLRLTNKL

[6] = target: Induced myeloid leukemia cell differentiation protein Mcl-1 (Homo sapiens, UniProt Q07820); type: functional
Sequence of Induced myeloid leukemia cell differentiation protein Mcl-1 (Q07820 whole entry, the tested form may be a part): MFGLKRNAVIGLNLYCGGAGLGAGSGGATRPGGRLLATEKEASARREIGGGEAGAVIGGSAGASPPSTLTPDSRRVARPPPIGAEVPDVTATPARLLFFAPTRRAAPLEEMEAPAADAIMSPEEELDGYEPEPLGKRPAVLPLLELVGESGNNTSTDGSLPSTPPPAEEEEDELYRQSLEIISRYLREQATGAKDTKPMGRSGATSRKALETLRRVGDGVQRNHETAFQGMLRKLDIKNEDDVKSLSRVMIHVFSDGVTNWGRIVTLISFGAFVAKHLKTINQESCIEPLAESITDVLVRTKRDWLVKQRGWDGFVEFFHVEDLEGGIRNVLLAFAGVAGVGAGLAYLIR

[7] = target: T3, RNA-binding protein pos-1 (Caenorhabditis elegans, UniProt G5EF15); experiment: disruptors of C. elegans POS-1 RNA interaction – biochemical, fluorescence polarization, dose response (AID 1964);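 further: purified POS-1 fused to maltose binding protein made in E. coli; potency of compounds blocking POS-1 binding to fluorescent RNA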
T3 sequence (G5EF15 whole entry): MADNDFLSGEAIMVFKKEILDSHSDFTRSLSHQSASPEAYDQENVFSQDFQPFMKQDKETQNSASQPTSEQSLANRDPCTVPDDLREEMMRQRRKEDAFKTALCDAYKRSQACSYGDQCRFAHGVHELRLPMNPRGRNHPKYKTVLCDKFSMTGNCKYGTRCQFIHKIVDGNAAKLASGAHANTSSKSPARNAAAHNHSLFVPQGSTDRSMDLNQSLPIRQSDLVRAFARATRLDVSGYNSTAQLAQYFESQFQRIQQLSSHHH

[8] = viability loss of HPDE-C7K cells – cell-based, fluorescence, HTS, primary screen (AID 431); type: functional; settings: Homo sapiens
[9] = loss of viability in HepG2 cells – cell-based, CellTiter-Glo, cherry-picked, cytotoxicity control for Shn3 inhibitor project, dose response (AID 624134); type: functional
[10] = Trypanosoma cruzi growth suppression in host cells – NIH3T3 host cells, beta-gal luminescence, confirmation (AID 2044); type: functional, cell-based;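 further: intracellular parasites grown in NIH/3T3 mouse fibroblasts as host cells; luminescent beta-galactosidase reporter signal from transgenic T. cruzi replicating inside host cells; inhibitors lower the luminescence signal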
[11] = NIH3T3 cell viability loss – ATP luminescence, mouse fibroblasts, counter-screen, dose response (AID 2010); type: functional, cell-based;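 further: cells exposed to compound for about 90 hours before reading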
[12] = viability of PTEN-deleted HCT116 cells – cell-based, HCT116 PTEN knockout, dose response (AID 1047); type: functional;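 further: HCT116 colon tumor cells with PTEN knocked out; cells exposed to compound for 60 hours before readout; potency for loss of cell viability measured by luminescence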
[13] = HEK-293T viability loss after treatment – luminescence, T-cell screen hits, cytotoxicity control for TCR NF-kB inhibitor project, dose response (AID 489026); type: functional, cell-based;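 further: cells exposed to compound about 14 hours before the viability readout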
[14] = reduction of Shn3 3'UTR-driven luciferase in osteoblasts – cell-based, Clone20 osteoblasts, firefly luciferase, cherry-picked, dose response (AID 624132); type: functional;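 further: firefly luciferase luminescence from reporter carrying the Shn3 3'UTR in osteoblasts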
[15] = Vero E6 cell cytotoxicity, dose response, cytotoxicity control for non-replicating M. tuberculosis project, secondary assay (AID 492998); type: functional, VeroE6; settings: Vero C1008
[16] = cells; type: functional
[17] = target: Sphingosine 1-phosphate receptor 2 (Homo sapiens, UniProt O95136); experiment: Dose Response Cell Based Assay for Antagonists of the S1P2 Receptor. [Related pubchem assays: 856, 736 ]; type: functional
Sequence of Sphingosine 1-phosphate receptor 2 (O95136 whole entry): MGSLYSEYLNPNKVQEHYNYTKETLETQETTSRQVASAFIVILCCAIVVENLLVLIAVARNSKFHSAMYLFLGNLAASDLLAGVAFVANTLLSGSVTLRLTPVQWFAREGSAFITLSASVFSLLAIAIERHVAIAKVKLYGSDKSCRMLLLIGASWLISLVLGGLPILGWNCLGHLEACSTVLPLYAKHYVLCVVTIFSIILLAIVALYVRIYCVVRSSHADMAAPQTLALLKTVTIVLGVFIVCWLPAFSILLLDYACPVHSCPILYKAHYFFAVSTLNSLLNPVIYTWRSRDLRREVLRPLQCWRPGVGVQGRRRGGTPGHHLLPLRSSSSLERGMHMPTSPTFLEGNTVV

[18] = non-specific 3'UTR reporter inhibition in Clone20-Shn3RL – cell-based, Renilla luciferase, cherry-picked, counter-screen for Shn3 inhibitor project, dose response (AID 624133); type: functional
[19] = THP-1 cell cytotoxicity, dose response, cytotoxicity control for non-replicating M. tuberculosis project (AID 489025); type: functional
[20] = viability of HCT116 lacking mutant beta-catenin – cell-based, human colon tumor, dose response (AID 1045); type: functional;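 further: HCT116 colon tumor cells with beta catenin knocked out; cells exposed to compound for 60 hours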
[21] = HPDE-C7 pancreatic duct cell viability loss – fluorescence, HTS (AID 430); type: functional, cell-based; settings: Homo sapiens
[22] = target: Phospholipase A2 (Homo sapiens, UniProt P04054); type: functional;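 further: confirmatory dose-response counterscreen on phospholipase A2, testing hits that came from an ultra-high-throughput screen for ATG4B inhibitors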
Sequence of Phospholipase A2 (P04054 whole entry): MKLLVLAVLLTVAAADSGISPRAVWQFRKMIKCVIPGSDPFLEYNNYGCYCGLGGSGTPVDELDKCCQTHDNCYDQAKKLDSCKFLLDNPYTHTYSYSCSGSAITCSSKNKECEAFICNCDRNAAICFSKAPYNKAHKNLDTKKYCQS

[23] = tested on: Vero; experiment: cells; type: functional; settings: Chlorocebus sabaeus
[24] = target: Cysteine protease ATG4B (Homo sapiens, UniProt Q9Y4P1); type: functional;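 further: Fluorescence-based dose-response confirmation assay measuring inhibition of ATG4B activity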
Sequence of Cysteine protease ATG4B (Q9Y4P1 whole entry): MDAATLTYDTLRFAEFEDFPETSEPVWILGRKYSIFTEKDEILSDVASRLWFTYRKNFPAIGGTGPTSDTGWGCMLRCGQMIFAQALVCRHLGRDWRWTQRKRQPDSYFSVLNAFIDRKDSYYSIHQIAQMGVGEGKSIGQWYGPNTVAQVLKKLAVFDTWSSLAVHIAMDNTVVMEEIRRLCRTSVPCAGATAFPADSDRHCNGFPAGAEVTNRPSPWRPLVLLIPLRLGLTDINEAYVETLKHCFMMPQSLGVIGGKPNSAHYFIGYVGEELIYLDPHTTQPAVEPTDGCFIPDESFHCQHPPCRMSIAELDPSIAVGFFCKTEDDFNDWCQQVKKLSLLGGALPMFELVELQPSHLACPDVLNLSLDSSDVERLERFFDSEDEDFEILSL

[25] = target: Voltage-gated inwardly rectifying potassium channel KCNH2 (Homo sapiens, UniProt Q12809); experiment: concentration-dependent hERG rescue from blockers – cell-based, thallium flux, dose response (AID 2121); type: ADME
Sequence of Voltage-gated inwardly rectifying potassium channel KCNH2 (Q12809 whole entry): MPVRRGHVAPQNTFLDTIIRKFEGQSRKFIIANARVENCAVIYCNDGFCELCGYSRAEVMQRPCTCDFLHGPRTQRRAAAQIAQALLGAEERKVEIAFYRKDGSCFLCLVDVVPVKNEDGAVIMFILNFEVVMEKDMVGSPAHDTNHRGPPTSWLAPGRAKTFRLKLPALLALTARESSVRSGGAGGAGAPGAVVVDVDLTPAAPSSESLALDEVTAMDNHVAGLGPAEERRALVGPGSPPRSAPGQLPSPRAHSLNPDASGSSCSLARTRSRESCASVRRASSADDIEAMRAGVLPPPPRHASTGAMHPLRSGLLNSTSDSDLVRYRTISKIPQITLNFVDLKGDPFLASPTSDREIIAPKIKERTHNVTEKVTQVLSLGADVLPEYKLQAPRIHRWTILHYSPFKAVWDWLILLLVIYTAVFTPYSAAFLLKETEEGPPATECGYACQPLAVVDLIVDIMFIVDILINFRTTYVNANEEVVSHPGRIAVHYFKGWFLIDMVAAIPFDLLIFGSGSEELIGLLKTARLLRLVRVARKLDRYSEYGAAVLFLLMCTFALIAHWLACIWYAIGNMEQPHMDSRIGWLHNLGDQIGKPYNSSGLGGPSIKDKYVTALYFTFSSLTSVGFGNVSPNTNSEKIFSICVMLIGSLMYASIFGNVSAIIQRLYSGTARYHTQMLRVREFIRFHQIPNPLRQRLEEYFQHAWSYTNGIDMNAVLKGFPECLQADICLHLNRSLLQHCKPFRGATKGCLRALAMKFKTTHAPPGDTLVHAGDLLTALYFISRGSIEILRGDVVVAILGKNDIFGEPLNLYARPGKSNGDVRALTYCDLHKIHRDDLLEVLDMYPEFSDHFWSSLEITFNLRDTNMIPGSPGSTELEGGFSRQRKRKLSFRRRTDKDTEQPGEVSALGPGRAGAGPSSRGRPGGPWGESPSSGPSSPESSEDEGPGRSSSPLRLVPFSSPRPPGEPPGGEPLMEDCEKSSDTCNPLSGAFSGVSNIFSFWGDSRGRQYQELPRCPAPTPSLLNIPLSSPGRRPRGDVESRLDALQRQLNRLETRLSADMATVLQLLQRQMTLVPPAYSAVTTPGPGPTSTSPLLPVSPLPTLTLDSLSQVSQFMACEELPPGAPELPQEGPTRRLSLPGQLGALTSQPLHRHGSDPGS

[26] = tested on: Vero; experiment: cells; type: functional, cell-based; settings: Chlorocebus sabaeus
[27] = target: Photoreceptor-specific nuclear receptor (Homo sapiens, UniProt Q9Y5X4); experiment: ligands suppressing NR2E3 nuclear receptor activity – biochemical, TR-FRET, dose response (AID 463256); type: functional
Sequence of Photoreceptor-specific nuclear receptor (Q9Y5X4 whole entry): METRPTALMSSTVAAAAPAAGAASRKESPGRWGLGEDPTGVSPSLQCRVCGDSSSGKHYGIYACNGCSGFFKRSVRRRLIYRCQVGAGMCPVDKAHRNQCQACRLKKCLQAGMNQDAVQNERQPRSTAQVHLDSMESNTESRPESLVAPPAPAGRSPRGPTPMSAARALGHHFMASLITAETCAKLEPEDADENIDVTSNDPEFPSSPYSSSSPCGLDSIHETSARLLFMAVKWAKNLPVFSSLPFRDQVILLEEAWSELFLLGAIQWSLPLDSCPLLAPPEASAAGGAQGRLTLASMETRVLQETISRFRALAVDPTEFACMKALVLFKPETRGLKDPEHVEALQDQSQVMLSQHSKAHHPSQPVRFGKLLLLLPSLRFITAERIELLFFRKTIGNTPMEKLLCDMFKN

[28] = target: Peroxisome proliferator-activated receptor gamma/Nuclear receptor corepressor 2 (Homo sapiens, UniProt P37231+Q9Y618); experiment: Counterscreen for NR2E3 inverse agonists: TR-FRET-based biochemical high throughput dose response assay to identify inverse agonists of the interaction between peroxisome proliferator-activated receptor gamma (PPARg) and nuclear receptor co-repressor 2 (NCOR2).; type: functional

CCOC(=O)/C(C#N)=C/c1cc(C)n(-c2ccccc2)c1C
> 55.7 µM (not active): IC50 [1]

CCOC(=O)c1cc(-c2ccc(/C=C3/C(=O)NC(=O)C(C#N)=C3C)o2)ccc1Cl
active: EC50 [2] 17.4 µM | IC50 [3] 2.53 µM | IC50 [4] 23.4 µM | IC50 [5] 80.1 µM | IC50 [6] 0.752 µM | EC50 [7] 19.9 µM

O=S1(=O)C=C(Sc2nc3cc(Cl)ccc3o2)c2ccccc21
inactive: IC50 [13] 54.3 µM
active: EC50 [8] 9.45 µM | AC50 [9] 18.4 µM | EC50 [10] 0.818 µM | EC50 [11] 1.58 µM | EC50 [12] 4.03 µM | AC50 [14] < 0.26 µM | CC50 [15] 5.94 µM | IC50 [16] 1.57 µM | IC50 [17] 3.47 µM | AC50 [18] 4.15 µM | CC50 [19] 8.54 µM | EC50 [20] 3.65 µM | EC50 [21] 4.03 µM

Cc1ccc(C(=O)CC(=O)c2cc(Cl)ccc2O)cc1
active: IC50 [22] 8 µM | CC50 [23] 22.3 µM | IC50 [24] 11.1 µM | EC50 [25] 3.02 µM | IC50 [26] 23.8 µM

Cn1c(SCC(=O)c2ccc3c(c2)Cc2ccccc2-3)nnc1-c1ccccc1
active: IC50 [27] 3.82 µM | IC50 [28] 4.12 µM
